Results: patent US9845340B2, “Peptides that specifically bind HGF receptor (cMet) and uses thereof” (Dyax Corp., priority 2003, dated 2017)

What was measured:
[1] = target: T1, 3T3 cells that over-express human cMet (Homo sapiens, UniProt P08581); assay: Whole cell ELISA of peptide-displaying phage; format: cell-based; conditions: phage isolate; 3T3 cells expressing human cMet vs. non-expressing 3T3 cells
T1 construct: expressed in transfected cells; host or cells: 3T3 cells
Method: Whole cell ELISAs were performed using 3T3 cells that over-express human cMet. […] Briefly, 96-well plates were seeded with 10^5 cells per well. The plates were centrifuged for 5 minutes at 1600 rpm to pellet the cells. The resulting cell layer was fixed with 0.1% (v/v) glutaraldehyde for 12 minutes at 37 C. […] Peptide-displaying phage also were blocked in the above solution for 1 hour at 37 C. 100 μL of blocked phage was then added to each well and the plates were incubated for 1 hour at room temperature. The plates were washed with PBST. cMet-binding peptide-displaying phage were detected using an HRP-conjugated anti-M13 antibody.

cMet-Fc fusion protein = cMet-Fc fusion protein (Homo sapiens, UniProt P08581); assay: Protein phage ELISA: peptide-displaying phage binding to soluble cMet-Fc versus TRAIL-Fc; conditions: phage isolate; cMet-Fc vs. TRAIL-Fc
Method: Protein phage ELISAs using peptide-displaying phage isolates from the various selection campaigns were performed to determine specificity of the peptides for cMet versus an unrelated Fc-fusion protein (TRAIL-Fc). Briefly, 384-well plates were coated overnight at 4 C with 0.5 μg/mL of cMet-Fc fusion protein or TRAIL-Fc fusion protein (background). The plates were blocked for 2 hours 37C with 3% (w/v) BSA in PBS containing 0.05% (v/v) Tween-20 (PBST). The plates were washed with PBST and 100 μL of peptide-displaying phage were added to each well. The plates were incubated for 2 hours at room temperature and washed with PBST. cMet-binding peptide-displaying phage were detected using an HRP-conjugated anti-M13 antibody.

T1 sequence (P08581 25-1390): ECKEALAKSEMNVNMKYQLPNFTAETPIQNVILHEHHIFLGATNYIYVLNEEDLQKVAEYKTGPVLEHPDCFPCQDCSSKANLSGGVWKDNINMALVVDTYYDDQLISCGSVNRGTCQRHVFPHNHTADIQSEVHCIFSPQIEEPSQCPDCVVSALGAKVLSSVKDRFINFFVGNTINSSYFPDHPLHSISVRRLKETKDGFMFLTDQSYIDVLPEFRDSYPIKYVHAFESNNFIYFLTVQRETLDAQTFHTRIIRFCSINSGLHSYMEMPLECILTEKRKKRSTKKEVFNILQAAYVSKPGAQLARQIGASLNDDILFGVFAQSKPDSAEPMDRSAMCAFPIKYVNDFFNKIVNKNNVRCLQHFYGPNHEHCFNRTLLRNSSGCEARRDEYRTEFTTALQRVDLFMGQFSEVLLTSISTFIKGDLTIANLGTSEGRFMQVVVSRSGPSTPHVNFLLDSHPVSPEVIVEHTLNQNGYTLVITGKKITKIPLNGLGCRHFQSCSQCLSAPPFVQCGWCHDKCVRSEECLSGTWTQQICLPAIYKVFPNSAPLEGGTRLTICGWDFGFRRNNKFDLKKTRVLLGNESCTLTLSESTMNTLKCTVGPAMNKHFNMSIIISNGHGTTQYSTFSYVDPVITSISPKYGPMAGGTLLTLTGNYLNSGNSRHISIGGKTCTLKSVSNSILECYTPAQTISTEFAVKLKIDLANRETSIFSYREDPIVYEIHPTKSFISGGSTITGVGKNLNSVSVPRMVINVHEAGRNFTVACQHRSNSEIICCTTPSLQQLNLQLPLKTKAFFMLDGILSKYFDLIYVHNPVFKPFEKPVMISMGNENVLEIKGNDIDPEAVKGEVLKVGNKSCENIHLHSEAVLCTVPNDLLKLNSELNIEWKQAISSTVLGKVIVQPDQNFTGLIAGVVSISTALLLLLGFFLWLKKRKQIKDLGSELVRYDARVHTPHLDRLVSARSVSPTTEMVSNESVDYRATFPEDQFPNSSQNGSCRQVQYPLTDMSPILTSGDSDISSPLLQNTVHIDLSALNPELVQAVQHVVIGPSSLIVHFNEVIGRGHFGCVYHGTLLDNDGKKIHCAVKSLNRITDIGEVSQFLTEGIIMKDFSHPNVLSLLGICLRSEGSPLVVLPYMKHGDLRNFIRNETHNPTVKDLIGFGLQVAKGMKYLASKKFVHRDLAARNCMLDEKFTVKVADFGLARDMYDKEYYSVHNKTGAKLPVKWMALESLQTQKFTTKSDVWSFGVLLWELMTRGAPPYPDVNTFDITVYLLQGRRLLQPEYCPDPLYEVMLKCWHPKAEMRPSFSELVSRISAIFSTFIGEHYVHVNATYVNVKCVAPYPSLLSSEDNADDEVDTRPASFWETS
cMet-Fc fusion protein, sequence (P08581 25-307 limits assumed): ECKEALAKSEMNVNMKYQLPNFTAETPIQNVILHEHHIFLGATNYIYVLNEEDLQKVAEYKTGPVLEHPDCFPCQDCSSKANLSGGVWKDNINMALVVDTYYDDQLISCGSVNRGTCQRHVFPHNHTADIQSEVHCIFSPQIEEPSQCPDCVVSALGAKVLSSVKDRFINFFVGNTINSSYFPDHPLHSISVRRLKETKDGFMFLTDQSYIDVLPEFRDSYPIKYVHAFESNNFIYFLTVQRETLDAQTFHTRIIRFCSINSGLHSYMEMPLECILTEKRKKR
cMet-Fc fusion protein, sequence (P08581 with tags, fused parts or gaps limits assumed): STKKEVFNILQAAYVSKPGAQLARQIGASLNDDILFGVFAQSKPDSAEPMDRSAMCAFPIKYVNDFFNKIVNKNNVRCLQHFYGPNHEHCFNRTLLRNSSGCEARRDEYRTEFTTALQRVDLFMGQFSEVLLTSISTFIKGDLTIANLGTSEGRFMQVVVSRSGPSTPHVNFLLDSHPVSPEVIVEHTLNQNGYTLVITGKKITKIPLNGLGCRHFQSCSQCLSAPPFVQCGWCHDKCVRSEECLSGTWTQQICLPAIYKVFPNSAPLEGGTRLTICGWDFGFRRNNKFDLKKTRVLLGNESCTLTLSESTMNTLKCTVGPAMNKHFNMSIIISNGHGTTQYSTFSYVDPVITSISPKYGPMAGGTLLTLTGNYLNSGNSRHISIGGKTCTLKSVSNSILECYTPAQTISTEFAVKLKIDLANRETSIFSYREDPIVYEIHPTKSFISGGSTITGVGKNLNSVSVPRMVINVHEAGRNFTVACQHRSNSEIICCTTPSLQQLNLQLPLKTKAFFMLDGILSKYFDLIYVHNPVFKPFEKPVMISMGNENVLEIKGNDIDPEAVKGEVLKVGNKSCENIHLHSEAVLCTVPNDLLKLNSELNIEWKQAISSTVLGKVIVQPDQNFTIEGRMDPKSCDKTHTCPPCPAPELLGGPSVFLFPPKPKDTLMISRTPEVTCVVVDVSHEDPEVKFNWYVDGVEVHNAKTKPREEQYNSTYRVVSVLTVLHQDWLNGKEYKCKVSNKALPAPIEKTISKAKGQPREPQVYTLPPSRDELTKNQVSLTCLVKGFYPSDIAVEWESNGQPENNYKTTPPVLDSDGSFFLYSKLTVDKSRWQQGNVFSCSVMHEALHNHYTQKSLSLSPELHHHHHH

Compound: CC[C@H](C)[C@H](NC(=O)[C@H](Cc1c[nH]c2ccccc12)NC(=O)[C@H](CO)NC(=O)CNC(C)=O)C(=O)N[C@H](C(=O)N[C@H]1CSSC[C@@H](C(=O)NCC(=O)N[C@@H](CO)C(=O)N[C@@H](CO)C(=O)N[C@@H](C)C(=O)N2CCC[C@H]2C(=O)NCC(=O)NCC(=O)NCC(=O)N[C@@H](CCCCNC(=O)c2ccc3c(c2)C(=O)OC32c3ccc(O)cc3Oc3cc(O)ccc32)C(N)=O)NC(=O)[C@H](CC(N)=O)NC(=O)[C@H](CC(=O)O)NC(=O)[C@H](Cc2c[nH]c3ccccc23)NC(=O)[C@H](Cc2c[nH]c3ccccc23)NC1=O)[C@@H](C)CC [SEQ ID NO: 001]
- WC ELISA [1]: 1.30 fold over background
- Protein ELISA (cMet-Fc fusion protein): 4.9 fold over background

Compound: CC[C@H](C)[C@H](NC(=O)[C@H](CO)NC(=O)CNC(=O)[C@H](C)NC(C)=O)C(=O)N[C@@H](CCC(N)=O)C(=O)N[C@H]1CSSC[C@@H](C(=O)N[C@@H](C)C(=O)N[C@@H](CCSC)C(=O)N[C@@H](Cc2ccc(O)cc2)C(=O)NCC(=O)N[C@H](C(=O)NCC(=O)NCC(=O)NCC(=O)N[C@@H](CCCCNC(=O)c2ccc3c(c2)C(=O)OC32c3ccc(O)cc3Oc3cc(O)ccc32)C(N)=O)[C@@H](C)O)NC(=O)[C@H](CO)NC(=O)[C@H](Cc2ccccc2)NC(=O)[C@H](Cc2c[nH]c3ccccc23)NC(=O)[C@@H]2CCCN2C(=O)[C@@H]2CCCN2C(=O)CNC(=O)[C@H](CCCCN)NC1=O [SEQ ID NO: 048]
- WC ELISA [1]: 1.47 fold over background
- Protein ELISA (cMet-Fc fusion protein): 15.9 fold over background

Compound: CC(=O)N[C@@H](C)C(=O)NCC(=O)N[C@@H](Cc1c[nH]c2ccccc12)C(=O)N[C@@H](Cc1ccccc1)C(=O)N[C@@H](CCC(N)=O)C(=O)N[C@H]1CSSC[C@@H](C(=O)N[C@@H](CCC(=O)O)C(=O)N[C@@H](CCCNC(=N)N)C(=O)N[C@@H](Cc2c[nH]cn2)C(=O)NCC(=O)N[C@H](C(=O)NCC(=O)NCC(=O)NCC(=O)N[C@@H](CCCCNC(=O)c2ccc3c(c2)C(=O)OC32c3ccc(O)cc3Oc3cc(O)ccc32)C(N)=O)[C@@H](C)O)NC(=O)[C@H](CCC(=O)O)NC(=O)[C@H](Cc2ccccc2)NC(=O)[C@H](CO)NC(=O)[C@@H]2CCCN2C(=O)[C@@H]2CCCN2C(=O)CNC(=O)[C@H](CCCCN)NC1=O [SEQ ID NO: 051]
- WC ELISA [1]: 1.33 fold over background
- Protein ELISA (cMet-Fc fusion protein): 5.4 fold over background

Compound: CC[C@H](C)[C@@H]1NC(=O)[C@@H](NC(=O)[C@H](Cc2c[nH]cn2)NC(=O)[C@@H](NC(=O)[C@H](Cc2c[nH]c3ccccc23)NC(=O)CNC(=O)[C@H](C)NC(C)=O)[C@@H](C)O)CSSC[C@@H](C(=O)N[C@H](C(=O)N2CCC[C@H]2C(=O)N[C@@H](CCSC)C(=O)NCC(=O)N[C@H](C(=O)NCC(=O)NCC(=O)NCC(=O)N[C@@H](CCCCNC(=O)c2ccc3c(c2)C(=O)OC32c3ccc(O)cc3Oc3cc(O)ccc32)C(N)=O)[C@@H](C)O)[C@@H](C)CC)NC(=O)[C@H](CCC(=O)O)NC(=O)[C@H](Cc2ccccc2)NC(=O)[C@H]([C@@H](C)O)NC(=O)[C@@H]2CCCN2C(=O)[C@@H]2CCCN2C(=O)CNC1=O [SEQ ID NO: 052]
- WC ELISA [1]: 1.30 fold over background
- Protein ELISA (cMet-Fc fusion protein): 8.0 fold over background

Compound: CC(=O)N[C@@H](C)C(=O)NCC(=O)N[C@@H](CO)C(=O)N[C@@H](Cc1ccccc1)C(=O)N[C@@H](C)C(=O)N[C@H]1CSSC[C@@H](C(=O)N[C@H](C(=O)N[C@@H](CCC(=O)O)C(=O)N[C@@H](Cc2ccccc2)C(=O)NCC(=O)N[C@H](C(=O)NCC(=O)NCC(=O)NCC(=O)N[C@@H](CCCCNC(=O)c2ccc3c(c2)C(=O)OC32c3ccc(O)cc3Oc3cc(O)ccc32)C(N)=O)[C@@H](C)O)C(C)C)NC(=O)[C@H](C)NC(=O)[C@H](Cc2ccccc2)NC(=O)[C@H]([C@@H](C)O)NC(=O)[C@@H]2CCCN2C(=O)[C@@H]2CCCN2C(=O)CNC(=O)[C@H](CCCCN)NC1=O [SEQ ID NO: 053]
- WC ELISA [1]: 1.27 fold over background
- Protein ELISA (cMet-Fc fusion protein): 18.1 fold over background

Compound: CC(=O)N[C@@H](C)C(=O)NCC(=O)N[C@@H](CO)C(=O)N[C@@H](Cc1c[nH]c2ccccc12)C(=O)N[C@@H](Cc1c[nH]cn1)C(=O)N[C@H]1CSSC[C@@H](C(=O)N[C@@H](Cc2c[nH]c3ccccc23)C(=O)N[C@@H](CCC(=O)O)C(=O)N[C@@H](Cc2ccccc2)C(=O)NCC(=O)N[C@H](C(=O)NCC(=O)NCC(=O)NCC(=O)N[C@@H](CCCCNC(=O)c2ccc3c(c2)C(=O)OC32c3ccc(O)cc3Oc3cc(O)ccc32)C(N)=O)[C@@H](C)O)NC(=O)[C@H](CCC(=O)O)NC(=O)[C@H](Cc2ccccc2)NC(=O)[C@H](CO)NC(=O)[C@@H]2CCCN2C(=O)[C@@H]2CCCN2C(=O)CNC(=O)[C@H](C)NC1=O [SEQ ID NO: 055]
- WC ELISA [1]: 1.47 fold over background
- Protein ELISA (cMet-Fc fusion protein): 18.3 fold over background

Compound: CC[C@H](C)[C@H](NC(=O)[C@H](Cc1c[nH]c2ccccc12)NC(=O)CNC(=O)[C@H](C)NC(C)=O)C(=O)N[C@@H](CO)C(=O)N[C@H]1CSSC[C@@H](C(=O)N[C@@H](Cc2c[nH]c3ccccc23)C(=O)N2CCC[C@H]2C(=O)NCC(=O)NCC(=O)N[C@H](C(=O)NCC(=O)NCC(=O)NCC(=O)N[C@@H](CCCCNC(=O)c2ccc3c(c2)C(=O)OC32c3ccc(O)cc3Oc3cc(O)ccc32)C(N)=O)[C@@H](C)O)NC(=O)[C@H](C)NC(=O)[C@H](Cc2ccccc2)NC(=O)[C@H]([C@@H](C)O)NC(=O)[C@@H]2CCCN2C(=O)[C@@H]2CCCN2C(=O)CNC(=O)[C@H](C)NC1=O [SEQ ID NO: 056]
- WC ELISA [1]: 1.23 fold over background
- Protein ELISA (cMet-Fc fusion protein): 14.3 fold over background

Compound: CC(=O)N[C@@H](C)C(=O)NCC(=O)N[C@@H](Cc1ccc(O)cc1)C(=O)N[C@H](C(=O)N[C@@H](CO)C(=O)N[C@H]1CSSC[C@@H](C(=O)N[C@H](C(=O)N2CCC[C@H]2C(=O)N[C@@H](Cc2ccc(O)cc2)C(=O)NCC(=O)N[C@H](C(=O)NCC(=O)NCC(=O)NCC(=O)N[C@@H](CCCCNC(=O)c2ccc3c(c2)C(=O)OC32c3ccc(O)cc3Oc3cc(O)ccc32)C(N)=O)[C@@H](C)O)[C@@H](C)O)NC(=O)[C@H](CCC(=O)O)NC(=O)[C@H](Cc2ccccc2)NC(=O)[C@H](CO)NC(=O)[C@@H]2CCCN2C(=O)[C@@H]2CCCN2C(=O)CNC(=O)[C@H](C(C)C)NC1=O)[C@@H](C)O [SEQ ID NO: 059]
- WC ELISA [1]: 1.43 fold over background
- Protein ELISA (cMet-Fc fusion protein): 21.2 fold over background

Compound: CC(=O)N[C@@H](C)C(=O)NCC(=O)N[C@@H](Cc1c[nH]cn1)C(=O)N[C@@H](C)C(=O)N[C@@H](Cc1c[nH]c2ccccc12)C(=O)N[C@H]1CSSC[C@@H](C(=O)N[C@@H](Cc2c[nH]c3ccccc23)C(=O)N2CCC[C@H]2C(=O)N2CCC[C@H]2C(=O)NCC(=O)N[C@H](C(=O)NCC(=O)NCC(=O)NCC(=O)N[C@@H](CCCCNC(=O)c2ccc3c(c2)C(=O)OC32c3ccc(O)cc3Oc3cc(O)ccc32)C(N)=O)[C@@H](C)O)NC(=O)[C@H](CCC(=O)O)NC(=O)[C@H](Cc2ccccc2)NC(=O)[C@H](CCCNC(=N)N)NC(=O)[C@@H]2CCCN2C(=O)[C@@H]2CCCN2C(=O)CNC(=O)[C@H](CO)NC1=O [SEQ ID NO: 061]
- WC ELISA [1]: 1.27 fold over background
- Protein ELISA (cMet-Fc fusion protein): 3.2 fold over background

Compound: CC(=O)N[C@@H](C)C(=O)NCC(=O)NCC(=O)N[C@@H](Cc1c[nH]c2ccccc12)C(=O)N[C@@H](CCC(=O)O)C(=O)N[C@H]1CSSC[C@@H](C(=O)NCC(=O)N[C@@H](Cc2ccc(O)cc2)C(=O)N[C@@H](Cc2ccc(O)cc2)C(=O)NCC(=O)N[C@H](C(=O)NCC(=O)NCC(=O)NCC(=O)N[C@@H](CCCCNC(=O)c2ccc3c(c2)C(=O)OC32c3ccc(O)cc3Oc3cc(O)ccc32)C(N)=O)[C@@H](C)O)NC(=O)[C@H](CCC(N)=O)NC(=O)[C@H](Cc2ccccc2)NC(=O)[C@H](Cc2c[nH]c3ccccc23)NC(=O)[C@@H]2CCCN2C(=O)[C@@H]2CCCN2C(=O)CNC(=O)[C@H]([C@@H](C)O)NC1=O [SEQ ID NO: 067]
- WC ELISA [1]: 1.47 fold over background
- Protein ELISA (cMet-Fc fusion protein): 8.0 fold over background

Compound: CC[C@H](C)[C@H](NC(=O)[C@H](CC(=O)O)NC(=O)CNC(=O)[C@H](C)NC(C)=O)C(=O)N[C@H](C(=O)N[C@H]1CSSC[C@@H](C(=O)N[C@@H](Cc2c[nH]c3ccccc23)C(=O)N[C@@H](CO)C(=O)N[C@@H](Cc2c[nH]c3ccccc23)C(=O)NCC(=O)N[C@H](C(=O)NCC(=O)NCC(=O)NCC(=O)N[C@@H](CCCCNC(=O)c2ccc3c(c2)C(=O)OC32c3ccc(O)cc3Oc3cc(O)ccc32)C(N)=O)[C@@H](C)O)NC(=O)[C@H](CCC(=O)O)NC(=O)[C@H](Cc2ccccc2)NC(=O)[C@H](Cc2ccc(O)cc2)NC(=O)[C@@H]2CCCN2C(=O)[C@H](Cc2c[nH]cn2)NC(=O)CNC(=O)[C@H]([C@@H](C)O)NC1=O)C(C)C [SEQ ID NO: 068]
- WC ELISA [1]: 1.33 fold over background
- Protein ELISA (cMet-Fc fusion protein): 6.3 fold over background
